How the values were obtained:
[1] = test system: CD19.28z CAR T cells; experiment: 8-plex CAR T SSN-seq ex vivo (infusion product); assay type: cell-based, human; settings: 5 μM TWS119, 0.15 μM JQ1; CCR7, SELL, TCF7
Procedure: Pooled/sorted cells were processed for single-cell RNA sequencing at using Chromium Next GEM Single Cell 3′ Reagent Kit V3.1 (with feature barcoding technology for CRISPR screening), following the manufacturer's protocol. For enrichSSN amplification, a primer specific to the 5′ shield sequence was used (see FIG. 16A) and PCR was performed following 10× Genomics protocol for “Feature PCR” with 15 or 19 amplification cycles. Pooled libraries (the 3′ gene expression library and the sgRNA/SSN library, at a 4:1 ratio) were sequenced with a NovaSeq6000 SP-100 flow cell (Illumina) for each scRNA-seq experiment.
scRNA-seq data were preprocessed. In brief, gene expressing reads were aligned to the GRCh38 genome (human) and/or mm 10 genome (mouse) using the 10× Genomics Cell Ranger (version 6.0.2, 6.1.1 and 6.1.2), with the cellranger count pipeline. sgRNA/SSN counts were retrieved by cellranger count using the pattern containing unique group barcodes and constant sequences derived from the sgRNA/SSN scaffold. […] To ensure a fair quantitative comparison, sgRNA/SSN UMI counts shown across different experiments were restricted to the raw output of cellranger count. Filtered feature-barcode matrices were further analyzed in R using Seurat (version 4.0.3). In general, genes detected in less than three cells and cells expressing <200 or >7,000 RNA features (genes) were filtered out. […]

[2] = test system: CD19.28z CAR T cells; experiment: Flow cytometry of T cell memory markers CCR7 and CD45RA in 8-plex CAR T cells; assay type: cell-based, human; settings: 5 μM TWS119, 0.15 μM JQ1, day 8
Procedure: 8-plex CAR T SSN-seg ex vivo (infusion product). Twenty-four hours after activation, human primary T cells were transduced with lentiviral vectors (see FIG. 16B). Transduced T cells were cultured in the presence of 5 μM TWS119, 0.15 μM JQ1, the combination of TWS119 and JQ1 (Combo), or DMSO (Mock) controls. CAR T cells in four treatment groups were expanded in culture media supplemented with IL2 or IL7 plus IL15 (denoted as IL7×15) cytokines. Culture media containing small molecule inhibitors and cytokines were replenished every other day. CAR T cells were maintained at a concentration of 0.5 to 1×10^6 cells per ml. On day 8, expression of T cell memory makers (CCR7 and CD45RA) was evaluated in all treatment groups using flow cytometry. Then, CAR T cells in all groups were counted and pooled at equal ratios. To enrich CAR^+ population a cell surface reporter NGFR^+ was utilized to FACS purify CAR T cells before scRNA-seq analysis. Aliquots of the pooled samples were also injected into tumor mice. Remaining CAR T cells were cryopreserved in CryoStor CS10 media (Stem Cell Technologies).

With `Cc1sc2c(c1C)C(c1ccc(Cl)cc1)=N[C@@H](CC(=O)OC(C)(C)C)c1nnc(C)n1-2` [JQ1] the “enriched genes in transcriptome analysis” value [1] was “enriched in memory-related genes” and the “naïve and central memory markers (CCR7, CD45RA)” value [2] was “enrichment of naïve and central memory markers”.
`Nc1cccc(-c2cc3c(Oc4cccc(O)c4)ncnc3[nH]2)c1` [TWS119] was tested, and the “enriched genes in transcriptome analysis” value [1] was “enriched in memory-related genes” and the “naïve and central memory markers (CCR7, CD45RA)” value [2] was “enrichment of naïve and central memory markers”.

From patent US20250354297A1, “SHIELDED SMALL NUCLEOTIDES FOR INTRACELLULAR BARCODING” (BOARD OF REGENTS, THE UNIVERSITY OF TEXAS SYSTEM, priority 2021, published 2025)
